Laboratory results: patent publication US10570149B2, “Tricyclic heterocylic derivatives” (MERCK PATENT GMBH, priority 2016, dated 2020)

Legend:
[1] = test system: phosphorylation of H2AX (gH2AX) in U2OS-TopBP1-ER cells; experiment: gH2AX-TopBP1ER cellular assay; assay type: cell-based
Description: gH2AX-TopBP1ER Cellular Assay
ATR activity is restricted to replicating cells and many of its targets can also be phosphorylated by other PIKKs. These restrictions have limited the development of selective cellular assays in the past. In order to overcome these limitations, a previously developed genetically engineered cellular system in which ATR, and only ATR, can be activated at will in every cell (Toledo et al Genes Dev. 22, 297-302 2008) was used. In this system, the addition of 4-hydroxytamoxifen (4-OHT), promotes the nuclear translocation of a fragment of TopBP1 which then activates ATR. The phosphorylation of H2AX that follows 4-OHT addition in these cells is a direct and selective readout of ATR activity, which is not influenced by the rest of PIKKs. This property has been used in a screen for compounds with ATR inhibitory capacity. U2OS-TopBP1-ER cells stably express the TopBP1 activation domain (aa 978-1286) fused to a mutated estrogen receptor ligand binding domain. Nuclear accumulation of the TopBP1-ER-LBD fusion protein is induced by the synthetic ER antagonist 4-hydroxytamoxifen (4-OHT) (and not by natural ER agonists) mediating specific ATR activation that is independent of DNA damage or cell cycle. In the assay phosphorylation of the ATR substrate H2AX (“gH2AX”) at Serin 139 is detected using an immune-cytochemical procedure and high content imaging. For the assay U2OS-TopBP1-ER cells are plated in culture medium (DMEM high Glucose (no phenol red), 2 mM Glutamax, 1 mM Pyruvate, 10% FCS into Greiner 384 well plates, black, μclear #781090 (4000 cells/well/30 μl) and incubated for at least 20 hours at 37° C., 10% CO2 and 90% rH. Diluted test compounds (1 nM-30 μM final) and 4-OHT (1 μM final) are added simultaneously and cells are incubated for 2 h at 37° C. After fixation with 4% formaldehyde and permeabilisation with 0.2% Triton X-100 a complete immunocytochemical procedure is performed using a specific anti-gH2AX-antibody (Millipore 05-636, clone JBW301) and fluorescently labelled secondary antibody (Alexa Fluor® 488 goat anti-mouse F(ab′)2 fragment, Invitrogen A11017) and parallel nuclear staining for cell counting. The nuclear localised gH2AX signal is detected on an ImageXpress Ultra confocal high content reader and reported as % positive cells (nuclei).

ATR/ATRIP = biological target: T1, ATR/ATRIP (Homo sapiens, UniProt Q13535); experiment: ATR/ATRIP kinase assay (TR-FRET, p53 phosphorylation); assay type: biochemical; conditions: Table 1, class symbols; read-out: ATR-ATRIP IC50
T1 construct: human ATR, full length, GenBank ID: NM_001184.3; p53: Sf21 insect cells
T1 sequence (Q13535 whole entry): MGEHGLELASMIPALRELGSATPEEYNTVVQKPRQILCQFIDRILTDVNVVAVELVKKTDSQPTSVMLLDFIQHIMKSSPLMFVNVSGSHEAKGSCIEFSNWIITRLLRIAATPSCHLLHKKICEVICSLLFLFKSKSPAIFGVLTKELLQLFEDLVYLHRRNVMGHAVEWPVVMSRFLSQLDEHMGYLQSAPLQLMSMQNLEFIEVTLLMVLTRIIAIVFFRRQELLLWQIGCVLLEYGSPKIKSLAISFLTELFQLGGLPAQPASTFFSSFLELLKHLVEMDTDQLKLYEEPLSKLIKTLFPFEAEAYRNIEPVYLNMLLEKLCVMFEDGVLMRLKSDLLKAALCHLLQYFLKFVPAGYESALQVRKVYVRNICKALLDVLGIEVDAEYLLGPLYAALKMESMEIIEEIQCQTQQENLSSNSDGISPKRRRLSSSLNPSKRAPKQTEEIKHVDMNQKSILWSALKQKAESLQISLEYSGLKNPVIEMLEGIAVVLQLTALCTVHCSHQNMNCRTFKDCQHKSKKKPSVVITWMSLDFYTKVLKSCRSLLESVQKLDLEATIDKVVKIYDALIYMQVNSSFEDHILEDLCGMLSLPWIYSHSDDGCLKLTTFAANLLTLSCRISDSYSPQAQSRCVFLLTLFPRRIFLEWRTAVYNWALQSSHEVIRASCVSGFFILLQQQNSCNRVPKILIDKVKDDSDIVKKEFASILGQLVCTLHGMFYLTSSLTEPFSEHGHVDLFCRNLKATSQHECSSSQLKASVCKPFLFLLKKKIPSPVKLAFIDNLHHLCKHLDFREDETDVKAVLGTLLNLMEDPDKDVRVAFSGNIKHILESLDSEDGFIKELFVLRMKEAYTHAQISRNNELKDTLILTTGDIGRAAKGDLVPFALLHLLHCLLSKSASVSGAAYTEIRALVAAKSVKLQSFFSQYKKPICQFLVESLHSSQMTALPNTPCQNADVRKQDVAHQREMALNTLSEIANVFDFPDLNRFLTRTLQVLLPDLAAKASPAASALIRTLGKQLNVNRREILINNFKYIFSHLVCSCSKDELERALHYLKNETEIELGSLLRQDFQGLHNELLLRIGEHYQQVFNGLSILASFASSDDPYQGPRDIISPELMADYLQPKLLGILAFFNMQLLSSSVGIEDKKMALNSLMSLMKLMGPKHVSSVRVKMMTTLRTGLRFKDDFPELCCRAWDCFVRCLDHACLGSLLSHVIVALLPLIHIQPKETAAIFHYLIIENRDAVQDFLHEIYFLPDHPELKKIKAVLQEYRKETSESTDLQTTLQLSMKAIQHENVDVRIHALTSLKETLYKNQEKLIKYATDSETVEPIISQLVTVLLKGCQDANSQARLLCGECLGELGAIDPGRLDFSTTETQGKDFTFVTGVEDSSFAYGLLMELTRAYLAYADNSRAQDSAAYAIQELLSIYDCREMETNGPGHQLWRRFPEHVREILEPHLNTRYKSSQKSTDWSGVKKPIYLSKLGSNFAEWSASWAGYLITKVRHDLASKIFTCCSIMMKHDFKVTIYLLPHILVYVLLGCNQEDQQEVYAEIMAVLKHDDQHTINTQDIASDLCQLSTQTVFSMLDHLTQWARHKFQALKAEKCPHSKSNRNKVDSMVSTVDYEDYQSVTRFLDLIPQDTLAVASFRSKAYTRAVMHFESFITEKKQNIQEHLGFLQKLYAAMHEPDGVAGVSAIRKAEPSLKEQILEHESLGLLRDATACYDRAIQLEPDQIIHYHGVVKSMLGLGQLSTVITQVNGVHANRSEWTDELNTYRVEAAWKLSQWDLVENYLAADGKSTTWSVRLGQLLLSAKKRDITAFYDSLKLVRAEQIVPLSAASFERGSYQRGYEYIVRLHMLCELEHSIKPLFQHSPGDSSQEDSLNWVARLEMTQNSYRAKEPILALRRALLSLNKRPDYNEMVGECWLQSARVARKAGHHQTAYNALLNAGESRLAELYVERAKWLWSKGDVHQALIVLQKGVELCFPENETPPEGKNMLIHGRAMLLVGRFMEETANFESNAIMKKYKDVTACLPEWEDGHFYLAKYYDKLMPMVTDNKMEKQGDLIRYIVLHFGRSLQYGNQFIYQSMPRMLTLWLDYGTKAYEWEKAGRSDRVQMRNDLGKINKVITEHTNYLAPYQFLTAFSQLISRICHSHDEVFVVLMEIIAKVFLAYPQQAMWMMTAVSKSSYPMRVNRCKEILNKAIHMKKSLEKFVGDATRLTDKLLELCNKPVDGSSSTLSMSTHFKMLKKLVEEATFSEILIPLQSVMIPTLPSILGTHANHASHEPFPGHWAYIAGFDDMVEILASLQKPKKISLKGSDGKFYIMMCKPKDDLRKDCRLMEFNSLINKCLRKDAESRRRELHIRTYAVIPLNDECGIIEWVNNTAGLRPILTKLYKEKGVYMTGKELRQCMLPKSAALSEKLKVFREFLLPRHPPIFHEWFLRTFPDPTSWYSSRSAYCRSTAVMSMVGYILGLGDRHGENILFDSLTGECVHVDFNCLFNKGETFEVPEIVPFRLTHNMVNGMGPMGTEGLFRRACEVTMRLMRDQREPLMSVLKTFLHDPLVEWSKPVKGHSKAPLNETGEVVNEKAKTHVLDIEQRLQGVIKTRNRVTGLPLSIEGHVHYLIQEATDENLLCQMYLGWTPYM
T1 sequence (Q8WXE1 whole entry partner): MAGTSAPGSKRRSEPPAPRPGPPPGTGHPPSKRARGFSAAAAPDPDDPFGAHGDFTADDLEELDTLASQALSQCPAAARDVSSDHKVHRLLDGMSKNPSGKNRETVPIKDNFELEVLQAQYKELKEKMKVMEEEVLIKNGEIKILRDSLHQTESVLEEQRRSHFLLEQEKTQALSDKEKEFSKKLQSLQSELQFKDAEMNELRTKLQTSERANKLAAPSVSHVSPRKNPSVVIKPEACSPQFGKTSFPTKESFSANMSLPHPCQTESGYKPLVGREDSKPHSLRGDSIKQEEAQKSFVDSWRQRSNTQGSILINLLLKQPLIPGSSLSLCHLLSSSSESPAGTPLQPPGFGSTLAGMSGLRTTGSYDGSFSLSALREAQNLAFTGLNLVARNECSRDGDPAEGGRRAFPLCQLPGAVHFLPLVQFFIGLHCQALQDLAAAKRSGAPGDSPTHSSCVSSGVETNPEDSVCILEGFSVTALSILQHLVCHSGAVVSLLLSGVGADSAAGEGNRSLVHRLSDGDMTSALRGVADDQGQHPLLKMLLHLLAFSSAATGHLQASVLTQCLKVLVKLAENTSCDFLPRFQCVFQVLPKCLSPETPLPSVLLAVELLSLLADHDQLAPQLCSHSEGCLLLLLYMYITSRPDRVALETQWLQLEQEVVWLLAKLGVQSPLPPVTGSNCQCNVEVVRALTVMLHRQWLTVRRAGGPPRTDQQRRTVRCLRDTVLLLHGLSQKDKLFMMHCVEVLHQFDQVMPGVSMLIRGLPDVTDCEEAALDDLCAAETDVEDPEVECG

[2] = test system: phosphorylation of Chk1 (Ser 345) in HT29 colon adenocarcinoma cells; experiment: pCHK1 cellular assay; assay type: cell-based; conditions: Homo sapiens
Description: Chk1 kinase acts downstream of ATR and has a key role in DNA damage checkpoint control. Activation of Chk1 involves phosphorylation of Ser317 and Ser345 (regarded as the preferential target for phosphorylation/activation by ATR) and occurs in response to blocked DNA replication and certain forms of genotoxic stress. Phosphorylation at Ser 345 serves to localize Chk1 to the nucleus following checkpoint activation.
This assay measures a decrease in phosphorylation of Chk1 (Ser 345) in HT29 colon adenocarcinoma cells following treatment with compound and hydroxyurea (which promotes fork stalling because of dNTP depletion) and using an immunocytochemical procedure and high content imaging.
For the assay HT29 cells are plated in culture medium (DMEM high Glucose (no phenol red), 2 mM Glutamax, 1 mM Pyruvate, 10% FCS into Greiner 384 well plates, black, μclear #781090 (2500 cells/well/30 μl) and incubated for at least 20 hours at 37° C., 10% CO2 and 90% rH. Diluted test compounds (1 nM-30 μM final) and hydroxyurea (3 mM final) are added simultaneously and cells are incubated for 4 h at 37° C. After fixation/prmeabilisation with 100% MeOH (−20° C. cold) and permeabilisation with 0.2% Triton X-100 a complete immunocytochemical procedure is performed using a specific anti-pChk1 antibody (Cell Signaling, #2348BF) and fluorescently labelled secondary antibody (Alexa Fluor® 488 goat anti-rabbit F(ab′)2 fragment, Invitrogen A11070) and parallel nuclear staining for cell counting.
The nuclear localised pChk1 signal is detected on an ImageXpress Ultra confocal high content reader and reported as % positive cells (nuclei).

[3] = HT-29, Table 1, class symbols, hydroxyurea

| SMILES | IC50 ([1]; Table 1, class symbols, 4-OHT) [nM] | IC50 (ATR/ATRIP) [nM] | IC50 [2, 3] [nM] | IC50 ([1]; Table 2, 4-OHT) [nM] | IC50 ([2]; HT-29, Table 2, hydroxyurea) [nM] |
| --- | --- | --- | --- | --- | --- |
| C[C@@H]1COC[C@H]2COc3c(nc(-c4c(F)cnc5[nH]ccc45)nc3C(C)(C)O)N21 [A7, 2-[(5R,8aS)-3-(5-Fluoro-1H-pyrrolo[2,3-b]pyridin-4-yl)-5-methyl-5,6,8a,9-tetrahydro-8H-7,10-dioxa-2,4,4b-triaza-phenanthren-1-yl]-propan-2-ol] | 100 to 1000 | 1 to 10 | 100 to 1000 |  |  |
| CNc1nccn1-c1nc2c(c(C(C)(C)S(C)(=O)=O)n1)OC[C@@H]1COC[C@@H](C)N21 [A10, {1-[(5R,8aS)-1-(1-Methanesulfonyl-1-methyl-ethyl)-5-methyl-5,6,8a,9-tetrahydro-8H-7,10-dioxa-2,4,4b-triaza-phenanthren-3-yl]-1H-imidazol-2-yl}-methyl-amine] | 100 to 1000 | 10 to 100 | 10 to 100 |  |  |
| CNc1cnc2[nH]ccc2c1-c1nc2c(c(C(C)(C)O)n1)OC[C@@H]1COC[C@@H](C)N21 [A23, 2-[(5R,8aS)-5-Methyl-3-(5-methylamino-1H-pyrrolo[2,3-b]pyridin-4-yl)-5,6,8a,9-tetrahydro-8H-7,10-dioxa-2,4,4b-triaza-phenanthren-1-yl]-propan-2-ol] | 100 to 1000 | 1 to 10 | 10 to 100 |  |  |
| CC(C)Nc1cnc2[nH]ccc2c1-c1nc2c(c(C(C)(C)S(C)(=O)=O)n1)OC[C@@H]1COC[C@@H](C)N21 [A81, isopropyl-{4-[(S)-1-(1-methanesulfonyl-1-methyl-ethyl)-5-(R)methyl-5,6,8a,9-tetrahydro-8H-7,10-dioxa-2,4,4b-triaza-phenanthren-3-yl]-1H-pyrrolo[2,3-b]pyridin-5-yl}-amine] |  | 1 to 10 | 100 to 1000 |  |  |
| CCNc1cnc2[nH]ccc2c1-c1nc2c(c(C(C)(C)S(C)(=O)=O)n1)OC[C@@H]1COC[C@@H](C)N21 [A90, ethyl-{4-[(S)-1-(1-methanesulfonyl-1-methyl-ethyl)-5-(R)-methyl-5,6,8a,9-tetrahydro-8H-7,10-dioxa-2,4,4b-triaza-phenanthren-3-yl]-1H-pyrrolo[2,3-b]pyridin-5-yl}-amine] |  | 1 to 10 | 10 to 100 |  |  |
| C[C@@H]1COC[C@H]2COc3c(nc(-c4c(O)cnc5[nH]ccc45)nc3C3(S(C)(=O)=O)CC3)N21 [A91, 4-[(5R,8aS)-1-(1-methanesulfonyl-cyclopropyl)-5-methyl-5,6,8a,9-tetrahydro-8H-7,10-dioxa-2,4,4b-triaza-phenanthren-3-yl]-1H-pyrrolo[2,3-b]pyridin-5-ol] |  | < 1 | 100 to 1000 |  |  |
| C[C@@H]1COC[C@H]2COc3c(nc(-n4c(NC5COC5)nc5ccccc54)nc3C(C)(C)S(C)(=O)=O)N21 [A93, {1-[(5R,8aS)-1-(1-methanesulfonyl-1-methyl-ethyl)-5-methyl-5,6,8a,9-tetrahydro-8H-7,10-dioxa-2,4,4b-triaza-phenanthren-3-yl]-1H-benzoimidazol-2-yl}-oxetan-3-yl-amine] |  | 1 to 10 | 10 to 100 |  |  |

Other lines, results leading:

| IC50 ([1]; Table 1, class symbols, 4-OHT) [nM] | IC50 (ATR/ATRIP) [nM] | IC50 [2, 3] [nM] | IC50 ([1]; Table 2, 4-OHT) [nM] | IC50 ([2]; HT-29, Table 2, hydroxyurea) [nM] | SMILES |
| --- | --- | --- | --- | --- | --- |
| 10 to 100 | < 1 | 10 to 100 |  |  | C[C@@H]1COC[C@H]2COc3c(nc(-c4ccnc5[nH]ccc45)nc3C(C)(C)O)N21 [A6, 2-[(5R,8aS)-5-Methyl-3-(1H-pyrrolo[2,3-b]pyridin-4-yl)-5,6,8a,9-tetrahydro-8H-7,10-dioxa-2,4,4b-triaza-phenanthren-1-yl]-propan-2-ol] |
| 100 to 1000 | < 1 | 10 to 100 |  |  | CNc1nc2ccccc2n1-c1nc2c(c(C(C)(C)O)n1)OC[C@@H]1COC[C@@H](C)N21 [A9, 2-[(5R,8aS)-5-Methyl-3-(2-methylamino-benzimidazol-1-yl)-5,6,8a,9-tetrahydro-8H-7,10-dioxa-2,4,4b-triaza-phenanthren-1-yl]-propan-2-ol] |
| 100 to 1000 | < 1 | 10 to 100 |  |  | C[C@@H]1COC[C@H]2COc3c(nc(-n4c(N)nc5ccccc54)nc3C(C)(C)S(C)(=O)=O)N21 [A11, 1-[(5R,8aS)-1-(1-Methanesulfonyl-1-methyl-ethyl)-5-methyl-5,6,8a,9-tetrahydro-8H-7,10-dioxa-2,4,4b-triaza-phenanthren-3-yl]-1H-benzimidazol-2-ylamine] |
| < 10 | < 1 | < 10 | 7.4 | 2.9 | CNc1nc2ccccc2n1-c1nc2c(c(C(C)(C)S(C)(=O)=O)n1)OC[C@@H]1COC[C@@H](C)N21 [A15, {1-[(5R,8aS)-1-(1-Methanesulfonyl-1-methyl-ethyl)-5-methyl-5,6,8a,9-tetrahydro-8H-7,10-dioxa-2,4,4b-triaza-phenanthren-3-yl]-1H-benzimidazol-2-yl}-methyl-amine] |
| 10 to 100 | < 1 | 100 to 1000 |  |  | C[C@@H]1COC[C@H]2COc3c(nc(-c4c(N)cnc5[nH]ccc45)nc3C(C)(C)O)N21 [A21, 2-[(5R,8aS)-3-(5-Amino-1H-pyrrolo[2,3-b]pyridin-4-yl)-5-methyl-5,6,8a,9-tetrahydro-8H-7,10-dioxa-2,4,4b-triaza-phenanthren-1-yl]-propan-2-ol] |
| 100 to 1000 | < 1 | 10 to 100 |  |  | Cc1nc2ccccc2n1-c1nc2c(c(C(C)(C)S(C)(=O)=O)n1)OC[C@@H]1COC[C@@H](C)N21 [A24, (5R,8aS)-1-(1-Methanesulfonyl-1-methyl-ethyl)-5-methyl-3-(2-methylbenzimidazol-1-yl)-5,6,8a,9-tetrahydro-8H-7,10-dioxa-2,4,4b-triaza-phenanthrene] |
| 100 to 1000 | < 1 | 10 to 100 |  |  | CNc1nc2c(F)cccc2n1-c1nc2c(c(C(C)(C)S(C)(=O)=O)n1)OC[C@@H]1COC[C@@H](C)N21 [A25, {4-Fluoro-1-[(5R,8aS)-1-(1-methanesulfonyl-1-methyl-ethyl)-5-methyl-5,6,8a,9-tetrahydro-8H-7,10-dioxa-2,4,4b-triaza-phenanthren-3-yl]-1H-benzimidazol-2-yl}-methyl-amine] |
| 10 to 100 | < 1 | 10 to 100 | 37 | 25 | CNc1nc2ccccc2n1-c1nc2c(c(C3(S(C)(=O)=O)CC3)n1)OC[C@@H]1COC[C@@H](C)N21 [A26, {1-[(4bR,8S)-1-(1-Methanesulfonyl-cyclopropyl)-5-methyl-5,6,8a,9-tetrahydro-8H-7,10-dioxa-2,4,4b-triaza-phenanthren-3-yl]-1H-benzimidazol-2-yl}-methylamine] |
